Reference: PMC13360702, “An Agonist/Antagonist Photo‐Switchable Vitamin D Mimetic Enables Bidirectional Optical Control of VDR” (Angewandte Chemie (International Ed. in English), 2026)
Where two headings read alike, the source gives them in different places.

What was measured:
[1] = test system: nuclear receptors related to VDR; test: panel of uniform Gal4‐NR hybrid reporter gene assays (selectivity); format: cell-based, human; conditions: 1 µM; both (E)‐ and (Z)‐configuration; (Z) maintained with Cell‐Disco (370 nm)
Experimental: (§1) FIGURE 2 Development and characterization of the light‐activated vitamin D mimetic photo‐vitD (10). (a) Structure activity relationship of photo‐switchable VDR agonists 4–10. Compounds were tested in a cellular Gal4‐VDR hybrid reporter gene assay. Relative activation is normalized to the effect of 2 (1 µM) set as 100% activation. The (Z)‐states of the compounds were maintained with a Cell‐Disco [24] (370 nm). […] Data in agonist (EC50) and antagonist mode (IC50; vs. 0.3 µM 2) are shown for (E)‐ and (Z)‐10. The corresponding dose‐response curves are shown in (d). (b) Predicted binding mode of (E)‐7 (green) in the VDR ligand binding site (pdb ID 4g1d). […] (c) Predicted binding mode of (Z)‐10 (yellow) in the VDR ligand binding site. The altered regiochemistry conveys strong preference for the light‐induced (Z)‐configuration and the extended naphthoic acid motif enables a strong ionic contact to R302. (d) Dose‐response curves of (E)‐ (dark) and (Z)‐10 (370 nm) in the Gal4‐VDR reporter gene assay in agonist (top) and antagonist mode (bottom, with 0.3 µM calcitriol (2)). (Z)‐10 activated VDR; (E)‐10 and (Z)‐10 antagonized VDR activation by 0.3 µM calcitriol (2). (Z)‐10 was maintained with a Cell‐Disco [24] (370 nm). […] Absorbance was measured at 351 nm with a 25 µM solution in DMSO, one cycle is 30 sec. […] (E)/(Z) ratios were measured by NMR. […]

VDR [2] = target: T1, VDR (Homo sapiens, UniProt P11473); test: Gal4‐VDR hybrid reporter gene assay, antagonist mode (vs. 0.3 µM calcitriol (2)); format: cell-based; conditions: dark‐adapted (E)‐state; vs. 0.3 µM 2 (calcitriol); read-out: VDR modulation dark (E): IC50 (antagonist mode)
T1 construct: -CMV-VDR-LBD coding for the hinge region and; expressed in transfected cells; host or cells: HEK293T
T1 sequence (P11473 127-423 limits assumed): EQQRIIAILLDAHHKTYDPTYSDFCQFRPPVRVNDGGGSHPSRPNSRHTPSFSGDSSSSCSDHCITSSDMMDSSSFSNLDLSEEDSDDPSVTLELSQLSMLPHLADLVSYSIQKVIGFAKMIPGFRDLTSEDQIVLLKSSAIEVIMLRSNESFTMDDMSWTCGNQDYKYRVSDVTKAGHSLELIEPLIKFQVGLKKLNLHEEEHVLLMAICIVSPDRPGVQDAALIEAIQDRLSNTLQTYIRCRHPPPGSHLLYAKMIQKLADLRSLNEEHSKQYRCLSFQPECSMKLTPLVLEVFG
Experimental: as §1

[3] = photophysical characterization (photo‐switching, thermal relaxation); format: physicochemical; conditions: alternating irradiation at 365 and 465 nm; 25 µM solution in DMSO
Experimental: as §1

VDR [4] = target: T1, VDR; test: Gal4‐VDR hybrid reporter gene assay, agonist mode; format: cell-based; conditions: HEK293T cells, mean±S.E.M., n≥3
Experimental: FIGURE 2 Development and characterization of the light‐activated vitamin D mimetic photo‐vitD (10). (a) Structure activity relationship of photo‐switchable VDR agonists 4–10. Compounds were tested in a cellular Gal4‐VDR hybrid reporter gene assay. Relative activation is normalized to the effect of 2 (1 µM) set as 100% activation. The (Z)‐states of the compounds were maintained with a Cell‐Disco [24] (370 nm). […] Data in agonist (EC50) and antagonist mode (IC50; vs. 0.3 µM 2) are shown for (E)‐ and (Z)‐10. The corresponding dose‐response curves are shown in (d). (b) Predicted binding mode of (E)‐7 (green) in the VDR ligand binding site (pdb ID 4g1d). […] (c) Predicted binding mode of (Z)‐10 (yellow) in the VDR ligand binding site. The altered regiochemistry conveys strong preference for the light‐induced (Z)‐configuration and the extended naphthoic acid motif enables a strong ionic contact to R302. (d) Dose‐response curves of (E)‐ (dark) and (Z)‐10 (370 nm) in the Gal4‐VDR reporter gene assay in agonist (top) and antagonist mode (bottom, with 0.3 µM calcitriol (2)). (Z)‐10 activated VDR; (E)‐10 and (Z)‐10 antagonized VDR activation by 0.3 µM calcitriol (2). (Z)‐10 was maintained with a Cell‐Disco [24] (370 nm). Data are the mean±S.E.M. relative VDR act. vs. 0.3 µM calcitriol (2), n≥3. (e) Activity profile of 10 (1 µM) on nuclear receptors showing exclusive VDR activation by the light‐activated state. 10 was tested in a panel of uniform Gal4‐NR hybrid reporter gene assays. (Z)‐10 was maintained with a Cell‐Disco [24] (370 nm). Data are the mean±SD, n = 3. (f) Representative UV/Vis spectra of 10 as (E)‐ (dark) and (Z)‐states (PSS 365 nm), and after switching back to (E) with 465 nm. (g) (E)/(Z)‐ratios of 10 in the dark‐adapted state, after illumination at 365 nm for 5 min and after switching back from mostly‐(Z) with 465 nm for 5 min. (h) 10 could be rapidly and reversibly switched between the (E)‐ and (Z)‐states over multiple cycles by alternating irradiation at 365 and 465 nm. Absorbance was measured at 351 nm with a 25 µM solution in DMSO, one cycle is 30 sec. […] 10 was pre‐illuminated at 365 nm for 30 min and then kept in the dark. (E)/(Z) ratios were measured by NMR. (j) Binding mode prediction of (E)‐ and (Z)‐10 to the VDR‐antagonist complex 2zxm (residues numbered according to [21]). (Z)‐10 (yellow) forms an agonist‐like binding mode with several polar interactions at both ends of the pocket. (E)‐10 (cyan) is also anchored at the distal end of the pocket by an H‐bond network with R302 and the D176 backbone but due to the (E)‐configuration, the β‐naphthoic acid residue protrudes deeper and the pentan‐3‐ol motif rotates away from H333/H423. Therefore, (E)‐10 lacks stabilizing/activating contacts with the H333/H423 region rationalizing its antagonist properties.
Gal4-hybrid reporter gene assays. Reporter gene assays were performed in HEK293T cells (German Collection of Microorganisms and Cell Culture GmbH, DSMZ) as reported previously using Gal4 -NR LBD fusion receptor plasmids each coding for the hinge region and LBD of the canonical isoform of the respective human nuclear receptor.[7,8] pFR-Luc (Stratagene, La Jolla, CA, USA) served as a reporter plasmid and pRL-SV40 (Promega, Madison, WI, USA) was used for normalization of transfection efficiency and test compound toxicity. Cells were cultured in Dulbecco’s modified Eagle’s medium (DMEM), high glucose supplemented with 10% fetal calf serum (FCS), sodium pyruvate (1 mM), penicillin (100 U/mL), and streptomycin (100 μg/mL) at 37 °C and 5% CO2, and seeded in 96-well plates (3 × 10^4 cells/well). After 24 h, the medium was changed to Opti -MEM without supplements, and cells were transiently transfected using Lipofectamine LTX reagent (Invitrogen, Carlsbad, CA, USA) according to the manufacturer’s protocol. Five hours after transfection, cells were incubated with the test compounds […]

IC50 (VDR [2]): 600 ± 100 nM
reversible switching between (E)‐ and (Z)‐states over multiple cycles [3]: no fatigue
EC50 (VDR [4]; (Z)‐state maintained with Cell‐Disco (370 nm), read-out: VDR modulation light-activated (Z): EC50): 170 nM
EC50 (VDR [4]; dark‐adapted (E)‐state, read-out: VDR modulation dark (E): EC50): > 10000 nM
SMILES: CCCc1cc(C(O)(CC)CC)ccc1-c1ccc(/N=N/c2ccc3cc(C(=O)O)ccc3c2)cc1C [compound 10]
activity on nuclear receptors related to VDR [1]: no activity
